Measured values from patent publication US20230227449A1, “AMIDOPYRIMIDONE DERIVATIVES” (Hoffmann-La Roche Inc., priority 2020, published 2023).
pIC50: −log10 of the molar value.

Target: Recombinant human Mat2a (Homo sapiens, UniProt P31153)
Test: Determination of Mat2A activity (384 well absorbance-based assay, Biomol Green)
Type: biochemical
Conditions: 12.5 nM Mat2A, 100 μM ATP and Methionine, 2% DMSO, 120 minutes at RT, absorbance at 635 nm
Procedure, shortened: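 Recombinant human Mat2A (12.5 nM) was preincubated with compound for 15 min at RT in HEPES pH 7.5 buffer with 2% DMSO. The reaction was started with 100 μM each of ATP and methionine and ran 120 min at RT. Phosphate was detected with Biomol Green by absorbance at 635 nm.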

Recombinant human Mat2a, sequence (P31153 whole entry): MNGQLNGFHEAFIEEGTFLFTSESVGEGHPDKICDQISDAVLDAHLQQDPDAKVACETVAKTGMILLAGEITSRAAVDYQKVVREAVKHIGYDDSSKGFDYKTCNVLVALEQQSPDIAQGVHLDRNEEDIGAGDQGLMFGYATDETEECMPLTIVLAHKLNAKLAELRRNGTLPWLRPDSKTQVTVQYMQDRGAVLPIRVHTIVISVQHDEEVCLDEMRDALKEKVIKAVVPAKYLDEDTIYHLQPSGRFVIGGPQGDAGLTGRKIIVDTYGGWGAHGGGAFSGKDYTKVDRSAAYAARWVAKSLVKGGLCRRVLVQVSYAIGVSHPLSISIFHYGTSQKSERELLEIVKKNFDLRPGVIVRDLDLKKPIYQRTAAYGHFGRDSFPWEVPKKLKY

| Structure (SMILES) | pIC50 |
| --- | --- |
| Nc1nc(=O)n(C2CCCOC23CC3)c2nc(C3CC3)ccc12 (centres unmarked) [Example 88, 4-amino-7-cyclopropyl-1-(4-oxaspiro[2.5]octan-8-yl)pyrido[2,3-d]pyrimidin-2(1H)-one] | > 7.89 |
| Cc1ncsc1-n1c(=O)nc(N)c2ccc(N3C4CCC3CC4)nc21 [Example 90, 4-amino-7-(7-azabicyclo[2.2.1]heptan-7-yl)-1-(4-methylthiazol-5-yl)pyrido[2,3-d]pyrimidin-2-one] | 7.89 |
| Cc1ccccc1-n1c(=O)nc(N)c2ccc(OC(F)F)nc21 [Example 91, 4-amino-7-(difluoromethoxy)-1-(2-methylphenyl)pyrido[2,3-d]pyrimidin-2-one] | > 7.89 |
| COc1ccccc1-c1c(=O)nc(N)n2ccc(C(F)(F)F)cc12 [Example 92, 1-amino-4-(2-methoxyphenyl)-6-(trifluoromethyl)-3H-pyrido[1,2-c]pyrimidin-3-one] | 7.43 |
| Cc1ncccc1-n1c(=O)nc(N)c2ccc(C3CCOC3)nc21 (centres unmarked) [Example 93, 4-amino-1-(2-methylpyridin-3-yl)-7-(tetrahydrofuran-3-yl)pyrido[2,3-d]pyrimidin-2 (1H)-one] | 7.57 |
| Cc1ccccc1-n1c(=O)nc(N)c2c(C(N)=O)cc(C3CC3)nc21 [Example 94, 4-amino-7-cyclopropyl-2-oxo-1-(o-tolyl)-1,2-dihydropyrido[2,3-d]pyrimidine-5-carboxamide] | 7.13 |
| Cc1ccccc1-n1c(=O)nc(N)c2c(C#N)cc(C3CC3)nc21 [Example 95, 4-amino-7-cyclopropyl-2-oxo-1-(o-tolyl)-1,2-dihydropyrido[2,3-d]pyrimidine-5-carbonitrile] | 7.66 |
| Cc1ccccc1-n1c(=O)nc(N)c2cnc(C3CC3)nc21 [Example 96, 4-amino-7-cyclopropyl-1-(o-tolyl)pyrimido[4,5-d]pyrimidin-2 (1H)-one] | > 7.89 |
| Nc1nc(=O)n(C2CCNC(=O)C2)c2nc(C3CC3)ccc12 (centres unmarked) [Example 97, 4-amino-7-cyclopropyl-1-(2-oxopiperidin-4-yl)pyrido[2,3-d]pyrimidin-2 (1H)-one] | 7.32 |
| Cc1ncccc1-n1c(=O)nc(O)c2ccc(C3CC3)cc21 [Example 98, 7-cyclopropyl-1-(2-methylpyridin-3-yl)quinazoline-2,4-dione] | 6.70 |
| Cc1ccccc1-n1c(=O)nc(O)c2ccc(C3CC3)nc21 [Example 99, 7-cyclopropyl-1-(2-methylphenyl)pyrido[2,3-d]pyrimidine-2,4-dione] | 7.19 |
| Cc1ccccc1-n1c(=O)[nH]c(=O)c2ccc(C3CC3)cc21 [Example 100, 7-cyclopropyl-1-(2-methylphenyl)quinazoline-2,4-dione] | 6.46 |
| Cc1ncccc1-n1c(=O)nc(O)c2ccc(C3CC3)nc21 [Example 101, 7-cyclopropyl-1-(2-methylpyridin-3-yl)pyrido[2,3-d]pyrimidine-2,4-dione] | 7.40 |
| COc1cc(C(F)(F)F)cc2c1c(N)nc(=O)n2-c1cccnc1C [Example 102, 4-amino-5-methoxy-1-(2-methylpyridin-3-yl)-7-(trifluoromethyl)quinazolin-2 (1H)-one] | 7.85 |
| COc1c(C#N)cccc1-n1c(=O)nc(N)c2cc(Cl)c(C(C)C)nc21 [Example 105, 3-(4-amino-6-chloro-7-isopropyl-2-oxopyrido[2,3-d]pyrimidin-1 (2H)-yl)-2-methoxybenzonitrile] | 7.38 |
| Cc1c(F)cccc1-n1c(=O)nc(N)c2ccc(C3CC3)cc21 [Example 106, 4-amino-7-cyclopropyl-1-(3-fluoro-2-methylphenyl)quinazolin-2-one] | > 7.89 |
| Nc1nc(=O)n(C2COCCOC2)c2nc(C3CC3)ccc12 [Example 107, 4-amino-7-cyclopropyl-1-(1,4-dioxepan-6-yl)pyrido[2,3-d]pyrimidin-2-one] | 7.60 |
| Nc1nc(=O)n(-c2cccc(OC(F)F)n2)c2nc(C3CC3)ccc12 [Example 108, 4-amino-7-cyclopropyl-1-(6-(difluoromethoxy)pyridin-2-yl)pyrido[2,3-d]pyrimidin-2 (1H)-one] | > 7.89 |
| Nc1nc(=O)n(-c2cccnc2Cl)c2cc(OC(F)(F)F)ccc12 [Example 109, 4-amino-1-(2-chloro-3-pyridyl)-7-(trifluoromethoxy)quinazolin-2-one] | 7.80 |
| Nc1nc(=O)n(-c2ccccc2OC(F)(F)F)c2nc(C3CC3)ccc12 [Example 110, 4-amino-7-cyclopropyl-1-[2-(trifluoromethoxy)phenyl]pyrido[2,3-d]pyrimidin-2-one] | > 7.89 |
| Nc1nc(=O)c(-c2ccccc2Cl)c2cc(C3CC3)ccn12 [Example 111, 4-(2-chlorophenyl)-6-cyclopropyl-1-imino-pyrido[1,2-c]pyrimidin-3-one] | > 7.89 |
| Nc1nc(=O)n(C2CCn3cncc32)c2nc(C3CC3)ccc12 (centres unmarked) [Example 112, 4-amino-7-cyclopropyl-1-(6,7-dihydro-5H-pyrrolo[1,2-c]imidazol-7-yl)pyrido[2,3-d]pyrimidin-2-one] | 7.41 |

| Structure (SMILES) | pIC50 |
| --- | --- |
| Cc1ccccc1-n1c(=O)nc(N)c2cc(OC(F)F)c(C3CC3)nc21 [Example 113, 4-amino-7-cyclopropyl-6-(difluoromethoxy)-1-(o-tolyl)pyrido[2,3-d]pyrimidin-2-one] | 7.85 |
| C[C@H]1OCCC[C@@H]1n1c(=O)nc(N)c2ccc(C3CC3)nc21 [Example 118, 4-amino-7-cyclopropyl-1-((2R,3S)-2-methyltetrahydro-2H-pyran-3-yl)pyrido[2,3-d]pyrimidin-2 (1H)-one] | 7.89 |
| C[C@@H]1OCCC[C@H]1n1c(=O)nc(N)c2ccc(C3CC3)nc21 [Example 119, 4-amino-7-cyclopropyl-1-((2S,3R)-2-methyltetrahydro-2H-pyran-3-yl)pyrido[2,3-d]pyrimidin-2 (1H)-one] | > 7.89 |
| Nc1nc(=O)n(-c2cccc3ncsc23)c2nc(C3CC3)ccc12 [Example 120] | > 7.89 |
| Cc1c(F)cccc1-n1c(=O)nc(N)c2ccc(OC(F)F)cc21 [Example 122, 4-amino-7-(difluoromethoxy)-1-(3-fluoro-2-methylphenyl)quinazolin-2 (1H)-one] | > 7.89 |
| Cc1c(O)cccc1-n1c(=O)nc(N)c2ccc(C3CC3)nc21 [Example 123, 4-amino-7-cyclopropyl-1-(3-hydroxy-2-methylphenyl)pyrido[2,3-d]pyrimidin-2 (1H)-one] | 7.89 |
| Nc1nc(=O)n([C@@H]2CCCCOC2)c2nc(C3CC3)ccc12 [Example 124, (R)-4-amino-7-cyclopropyl-1-(oxepan-3-yl)pyrido[2,3-d]pyrimidin-2 (1H)-one] | > 7.89 |
| Nc1nc(=O)n([C@H]2CCCCOC2)c2nc(C3CC3)ccc12 [Example 125, (S)-4-amino-7-cyclopropyl-1-(oxepan-3-yl)pyrido[2,3-d]pyrimidin-2 (1H)-one] | 7.40 |
| N#Cc1cccc(-n2c(=O)nc(N)c3ccc(C4CC4)nc32)c1F [Example 126, 3-(4-amino-7-cyclopropyl-2-oxopyrido[2,3-d]pyrimidin-1 (2H)-yl)-2-fluorobenzonitrile] | > 7.89 |
| Cc1cccc(-n2c(=O)nc(N)c3ccc(C4CC4)nc32)c1F [Example 127, 4-amino-7-cyclopropyl-1-(2-fluoro-3-methylphenyl)pyrido[2,3-d]pyrimidin-2 (1H)-one] | 7.89 |
| Nc1nc(=O)n(-c2cccc(Cl)c2Cl)c2nc(C3CC3)ccc12 [Example 128, 4-amino-7-cyclopropyl-1-(2,3-dichlorophenyl)pyrido[2,3-d]pyrimidin-2 (1H)-one] | > 7.89 |
| Cc1c(Cl)cccc1-n1c(=O)nc(N)c2ccc(C3CC3)nc21 [Example 129, 4-amino-1-(3-chloro-2-methylphenyl)-7-cyclopropylpyrido[2,3-d]pyrimidin-2-one] | > 7.89 |
| Cc1cccc(-n2c(=O)nc(N)c3ccc(C4CC4)nc32)c1Cl [Example 130, 4-amino-1-(2-chloro-3-methylphenyl)-7-cyclopropylpyrido[2,3-d]pyrimidin-2-one] | > 7.89 |
| Cc1c(CF)cccc1-n1c(=O)nc(N)c2ccc(C3CC3)nc21 [Example 131, 4-amino-7-cyclopropyl-1-(3-(fluoromethyl)-2-methylphenyl)pyrido[2,3-d]pyrimidin-2 (1H)-one] | > 7.89 |
| Nc1nc(=O)n(-c2ccccc2C(F)(F)F)c2nc(C3CC3)ccc12 [Example 132, 4-amino-7-cyclopropyl-1-(2-(trifluoromethyl)phenyl)pyrido[2,3-d]pyrimidin-2 (1H)-one] | > 7.89 |
| Cc1cccc(-n2c(=O)nc(N)c3ccc(OC(F)F)cc32)c1F [Example 133, 4-amino-7-(difluoromethoxy)-1-(2-fluoro-3-methylphenyl)quinazolin-2 (1H)-one] | 7.59 |
| Cc1cccc(-n2c(=O)nc(N)c3ccc(OC(F)F)cc32)c1 [Example 134, 4-amino-7-(difluoromethoxy)-1-(m-tolyl)quinazolin-2 (1H)-one] | 7.70 |
| Nc1nc(=O)n(-c2cccnc2Cl)c2cc(OC(F)F)ccc12 [Example 137, 4-amino-1-(2-chloropyridin-3-yl)-7-(difluoromethoxy)quinazolin-2 (1H)-one] | > 7.89 |
| Cc1cccc(-n2c(=O)nc(N)c3ccc(C4CC4)nc32)c1C [Example 138, 4-amino-7-cyclopropyl-1-(2,3-dimethylphenyl)pyrido[2,3-d]pyrimidin-2 (1H)-one] | > 7.89 |
| Nc1nc(=O)n(-c2cccc3[nH]ncc23)c2nc(C3CC3)ccc12 [Example 139, 4-amino-7-cyclopropyl-1-(1H-indazol-4-yl)pyrido[2,3-d]pyrimidin-2 (1H)-one] | > 7.89 |
| Nc1nc(=O)n([C@@H]2CCCOC23CC3)c2nc(C3CC3)ccc12 [Example 141, 4-amino-7-cyclopropyl-1-[(8R)-4-oxaspiro[2.5]octan-8-yl]pyrido[2,3-d]pyrimidin-2-one] | > 7.89 |
| Nc1nc(=O)n([C@H]2CCCOC23CC3)c2nc(C3CC3)ccc12 [Example 142, 4-amino-7-cyclopropyl-1-[(8S)-4-oxaspiro[2.5]octan-8-yl]pyrido[2,3-d]pyrimidin-2-one] | > 7.89 |
